# Source: patent US7126676B2, “Spectral analysis of light scattered from clotting blood” (priority 2002, dated 2006)
# Read-outs that look alike come from different tables or passages of the source.
# Columns and labels:
# [1] = tested on: clotting native whole blood; conditions: for Ratio of Post-treatment to Pre-treatment Value of Logistic Parameter B: two hours after ingestion, same subject
# clotting = conditions: cited from earlier work
# [2] = rofecoxib-treated arm compared with naproxen; cited from earlier work
compound,measurement,setting,value
Cc1ccc(-c2cc(C(F)(F)F)nn2-c2ccc(S(N)(=O)=O)cc2)cc1 [Celecoxib],Ratio of Post-treatment to Pre-treatment Value of Logistic Parameter B,"[1]; 470 nm, Celecoxib 400 mg single dose",0.087
same,Ratio of Post-treatment to Pre-treatment Value of Logistic Parameter B,"[1]; 550 nm, Celecoxib 400 mg single dose",0.154
same,Ratio of Post-treatment to Pre-treatment Value of Logistic Parameter B,"[1]; 610 nm, Celecoxib 400 mg single dose",0.055
same,Ratio of Post-treatment to Pre-treatment Value of Logistic Parameter B,"[1]; 700 nm, Celecoxib 400 mg single dose",0.107
CS(=O)(=O)c1ccc(C2=C(c3ccccc3)C(=O)OC2)cc1 [rofecoxib],Effect on clotting as measured by routine techniques,clotting,Neither rofecoxib nor celecoxib has any effect on clotting
same,Incidence of thrombotic events,[2],higher incidence of thrombotic events
CC(=O)Oc1ccccc1C(=O)O [Aspirin],Ratio of Post-treatment to Pre-treatment Value of Logistic Parameter B,"[1]; 470 nm, Aspirin 325 mg single dose",4.48
same,Ratio of Post-treatment to Pre-treatment Value of Logistic Parameter B,"[1]; 550 nm, Aspirin 325 mg single dose",1.45
same,Ratio of Post-treatment to Pre-treatment Value of Logistic Parameter B,"[1]; 610 nm, Aspirin 325 mg single dose",2.18
same,Ratio of Post-treatment to Pre-treatment Value of Logistic Parameter B,"[1]; 700 nm, Aspirin 325 mg single dose",1.85
COc1ccc2cc([C@H](C)C(=O)O)ccc2c1 [Naproxen],Ratio of Post-treatment to Pre-treatment Value of Logistic Parameter B,"[1]; 470 nm, Naproxen 600 mg single dose",1.63
same,Ratio of Post-treatment to Pre-treatment Value of Logistic Parameter B,"[1]; 550 nm, Naproxen 600 mg single dose",0.03
same,Ratio of Post-treatment to Pre-treatment Value of Logistic Parameter B,"[1]; 610 nm, Naproxen 600 mg single dose",0.34
same,Ratio of Post-treatment to Pre-treatment Value of Logistic Parameter B,"[1]; 700 nm, Naproxen 600 mg single dose",0.28
same,"Effect on clotting as determined by the invention, in words",[1]; at 470 nm,aspirin-like effect
same,"Effect on clotting as determined by the invention, in words","[1]; at the other wavelengths (550, 610, 700 nm)",celecoxib-like effect
